ChEMBL document CHEMBL1145997, “Understanding the antitumor activity of novel hydroxysemicarbazide derivatives as ribonucleotide reductase inhibitors using CoMFA and CoMSIA” (J Med Chem, 2003)

Test system: L1210
Assay: In vitro antitumor activity against L1210 cancer cell line
Assay type: functional, cell-based
Conditions: Mus musculus

IC50: 82 µM
SMILES: O=C(/N=C\NNC(=O)NO)NO
